Reference: PubChem BioAssay (NCI)
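Exposure lasted 48 hours, with cells grown in 96-well plates and compounds tested at five concentrations. GI50 is the concentration that inhibits growth by half. Definition used: TGI = concentration required for complete inhibition of growth.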

How the values were obtained:
Test in all cases: inhibition of tumour cell growth, NCI panel, 48 h
RPMI-8226 leukemia = system: RPMI-8226 leukemia
SK-MEL-2 melanoma = system: SK-MEL-2 melanoma
OVCAR-3 ovarian = system: OVCAR-3 ovarian
HOP-62 NSCLC = system: HOP-62 NSCLC
M14 melanoma = system: M14 melanoma
CCRF-CEM leukemia = system: CCRF-CEM leukemia
NCI-H226 lung = system: NCI-H226 lung
SNB-75 CNS = system: SNB-75 CNS
HCT-15 colon = system: HCT-15 colon
786-0 renal = system: 786-0 renal
HOP-18 NSCLC = system: HOP-18 NSCLC

| Compound | TGI (RPMI-8226 leukemia) [µM] | TGI (SK-MEL-2 melanoma) [µM] | TGI (OVCAR-3 ovarian) [µM] | TGI (HOP-62 NSCLC) [µM] | TGI (M14 melanoma) [µM] | TGI (CCRF-CEM leukemia) [µM] | TGI (NCI-H226 lung) [µM] | TGI (SNB-75 CNS) [µM] | TGI (HCT-15 colon) [µM] | TGI (786-0 renal) [µM] | TGI (HOP-18 NSCLC) [µM] | GI50 (RPMI-8226 leukemia) [µM] | GI50 (SK-MEL-2 melanoma) [µM] | GI50 (OVCAR-3 ovarian) [µM] | GI50 (CCRF-CEM leukemia) [µM] | GI50 (SNB-75 CNS) [µM] | GI50 (M14 melanoma) [µM] | GI50 (NCI-H226 lung) [µM] | GI50 (HCT-15 colon) [µM] | GI50 (HOP-62 NSCLC) [µM] |
| --- | --- | --- | --- | --- | --- | --- | --- | --- | --- | --- | --- | --- | --- | --- | --- | --- | --- | --- | --- | --- |
| O=c1c2ccccc2[nH]n1Cc1ccccc1 | > 100 | > 100 | > 100 | > 100 | > 100 | > 100 | > 100 | > 100 | > 100 | > 100 | – | – | – | – | – | – | – | – | – | – |
| NCCSc1cc(O)c2c(c1N)C(=O)c1ccccc1C2=O | – | > 100 | > 100 | > 100 | > 100 | 43.1 | – | > 100 | > 100 | > 100 | – | – | – | – | – | – | – | – | – | – |
| CC1(C)[C@@H]2CC[C@]1(C)[C@H](OC(=O)/C=C/c1ccccc1)C2 | – | 35 | 19.6 | 63.1 | 70.8 | 41.6 | 36.4 | 33.3 | 33.4 | 32.3 | – | – | – | – | – | – | – | – | – | – |
| COc1cccc(/C=N/NC(=O)CSCC(=O)N/N=C/c2cccc(OC)c2OC)c1OC | > 100 | > 100 | > 100 | > 100 | > 100 | – | > 100 | > 100 | > 100 | > 100 | – | – | – | – | – | – | – | – | – | – |
| O=C1C=CC2OC(c3ccccc3)C(O)C2O1 (stereo unspecified) | 7.65 | 6.63 | 10.7 | 26 | – | 11.6 | 5.2 | 31 | 14.4 | – | 1.81 | – | – | – | – | – | – | – | – | – |
| COc1cc(OC)cc(-c2ccc(-c3ccc(C(=N)N)cn3)o2)c1 | 4.33 | 3.72 | 3.46 | – | – | 4.6 | – | 2.85 | – | – | – | 1.92 | 2.01 | 1.89 | 2.06 | 1.48 | – | – | – | – |
| COc1cc(C(=O)O[C@H](C(=O)NCCCNC(=O)[C@@H](OC(=O)c2cc(OC)cc3c(C)cccc23)[C@]2(C)CO2)[C@]2(C)CO2)c2cccc(C)c2c1 | 2.26 | 34.6 | – | – | – | – | 0.762 | 0.381 | 0.723 | – | – | 0.322 | 0.137 | – | < 0.01 | – | < 0.0486 | 0.151 | 0.0444 | – |
| COc1ccc2c3c(Nc4cccc(/C(C)=N\O)c4)[nH]c4ccccc4c-3c(N=O)c2c1 | > 100 | 67.7 | 88.2 | > 100 | > 100 | > 100 | > 100 | – | 39.6 | – | – | 25.5 | 19.7 | 33.2 | 13.6 | – | 29.9 | 54 | 18 | 37.9 |
| COc1cc(C2c3cc4c(cc3[C@@H](Nc3cccc(CO)c3)C3COC(=O)[C@H]23)OCO4)cc(OC)c1O (stereo partly specified) | 2.12 | 6.2 | 13.4 | 0.556 | – | 0.732 | 1.7 | > 24.7 | 2.86 | – | 17.4 | – | – | – | – | – | – | – | – | – |
| C=CCN1/C(=C(\C#N)c2nc3ccccc3[nH]2)Sc2c1nc[nH]c2=O | > 100 | > 100 | > 100 | > 100 | > 100 | > 100 | – | > 100 | > 100 | – | – | – | – | – | – | – | – | – | – | – |
| Cc1[nH]c(=O)[nH]c(=O)c1/C=C/C(=O)O (tested in a mixture with another compound) | > 625 | > 625 | > 625 | > 625 | – | > 625 | > 625 | > 625 | > 625 | – | > 625 | – | – | – | – | – | – | – | – | – |
| CC(CC(N)C(=O)O)C(=O)O (stereo unspecified) | – | > 100 | > 100 | > 100 | > 100 | > 100 | > 100 | – | > 100 | > 100 | – | – | – | – | – | – | – | – | – | – |
| CCC(C)C(N)C(=O)NC(CC(N)=O)C(=O)NC(CC(C)C)C(=O)NC(CCCCN)C(=O)NC(C)C(=O)NC(CC(C)C)C(=O)NC(C)C(=O)NC(C)C(=O)NC(CC(C)C)C(=O)NC(C)C(=O)NC(CCCCN)C(=O)NC(CCCCN)C(=O)NC(C(=O)NC(CC(C)C)C(N)=O)C(C)CC (stereo unspecified) | – | 36.8 | 22.6 | 8.55 | 8.64 | 18.6 | 29 | 14 | 31.8 | 13.7 | 13.5 | – | – | – | – | – | – | – | – | – |
| COc1nc2cccc(C(O)c3ccccc3)c2nc1-c1ccccc1 (stereo unspecified) | 10.8 | 33.3 | 20.4 | 19.1 | 21.2 | 10.8 | 13.3 | > 100 | 26.5 | – | – | – | – | – | – | – | – | – | – | – |
| OCC1COc2cc(Cl)c(Cl)cc2O1 (stereo unspecified) | > 10 | > 10 | > 10 | > 10 | > 10 | > 10 | > 10 | > 10 | > 10 | – | – | – | – | – | – | – | – | – | – | – |
| COc1cc2c3cc1Oc1c(O)c(OC)cc4c1C(Cc1ccc(O)c(c1)Oc1ccc(cc1)CC3N(C)CC2)N(C)CC4 (stereo unspecified) | 84.4 | 38.4 | 30.5 | 33.8 | 7.8 | 36.7 | 38.3 | 35.3 | 23.8 | 25.9 | 45 | – | – | – | – | – | – | – | – | – |
| N#CC(N=Nc1ccccc1C(=O)O)C(N)=O (stereo unspecified) | > 100 | > 100 | > 100 | > 100 | > 100 | > 100 | > 100 | > 100 | > 100 | > 100 | – | – | – | – | – | – | – | – | – | – |
| Cc1cccc(Br)[n+]1[O-] | > 100 | > 100 | > 100 | > 100 | > 100 | > 100 | > 100 | > 100 | > 100 | > 100 | – | – | – | – | – | – | – | – | – | – |
| Cc1c[n+]2c3ccccc3c3ccccc3c2s1 | 57.8 | 25.7 | 12.9 | 28 | 35.4 | 28.4 | 3.89 | 12.1 | > 100 | > 100 | > 100 | – | – | – | – | – | – | – | – | – |
